# Measurements as given in US8791148B2, “Substituted benzimidazolone derivatives, medicaments comprising them and their use” (AbbVie Deutschland GmbH & Co. KG, priority 2006, dated 2014).
# Target: T1, human vasopressin V1b receptor (Homo sapiens, UniProt P47901)
# T1 construct: expressed in transfected cells; host or cells: CHO-K1 (cell line hV1b-3H2_CHO), membrane preparation
# T1 sequence (P47901 1-424): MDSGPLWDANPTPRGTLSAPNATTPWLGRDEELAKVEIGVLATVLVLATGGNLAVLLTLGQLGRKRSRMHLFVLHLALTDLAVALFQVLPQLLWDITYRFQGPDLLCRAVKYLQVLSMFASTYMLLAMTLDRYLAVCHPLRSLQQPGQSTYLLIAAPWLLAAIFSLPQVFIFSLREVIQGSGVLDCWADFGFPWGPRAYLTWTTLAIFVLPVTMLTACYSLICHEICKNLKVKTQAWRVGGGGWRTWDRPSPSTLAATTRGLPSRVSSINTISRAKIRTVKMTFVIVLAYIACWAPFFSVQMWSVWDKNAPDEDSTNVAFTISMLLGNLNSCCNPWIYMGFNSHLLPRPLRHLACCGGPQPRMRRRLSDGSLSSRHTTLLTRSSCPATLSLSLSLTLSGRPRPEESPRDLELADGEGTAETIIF
# Test: Vasopressin V1b receptor binding assay
# Settings: membranes from CHO-K1 cells with stably expressed human V1b receptors; displacement of 1.5 nM 3H-AVP; read-out: V1b receptor affinity (affinity constant Ki)
# How it was run: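 Ki values come from nonlinear regression of triplicate scintillation counts after filtration. Test compound (2% DMSO in the mixture) and radioligand were incubated 60 min at room temperature with human V1b membranes in pH 7.4 Tris buffer with 10 mM MgCl2 and 0.1% BSA. Nonspecific binding was set with 1 uM AVP.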
row,SMILES,Ki [nM]
1,"COc1ccc(S(=O)(=O)n2c(=O)n(C(C(=O)N3CCCC(N4CCN(Cc5ccccc5)CC4)C3)c3ccccc3)c3cc(Cl)ccc32)cc1 (stereo not drawn) [Example 139, 3-{2-[3-(4-Benzylpiperazin-1-yl)piperidin-1-yl]-2-oxo-1-phenylethyl}-5-chloro-1-(4-methoxybenzenesulfonyl)-1,3-dihydrobenzimidazol-2-one]",< 100
2,"COc1ccc(S(=O)(=O)n2c(=O)n(C(C(=O)N3CC[C@H](N4CCN(Cc5ccccc5)CC4)C3)c3ccccc3)c3cc(Cl)ccc32)cc1 (stereo partly drawn) [Example 140, 3-{2-[(S)-3-(4-Benzylpiperazin-1-yl)pyrrolidin-1-yl]-2-oxo-1-phenylethyl}-5-chloro-1-(4-methoxybenzenesulfonyl)-1,3-dihydrobenzimidazol-2-one]",< 100
3,"COc1ccc(S(=O)(=O)n2c(=O)n(C(C(=O)N3CCC(N4CCN(Cc5ccccc5)CC4)C3)c3ccccc3)c3cc(Cl)ccc32)cc1 (stereo not drawn) [Example 141, 3-{2-[3-(4-Benzylpiperazin-1-yl)-pyrrolidin-1-yl]-2-oxo-1-phenylethyl}-5-chloro-1-(4-methoxybenzenesulfonyl)-1,3-dihydrobenzimidazol-2-one]",< 100
4,"COc1ccc(S(=O)(=O)n2c(=O)n(C(C(=O)N3CC[C@@H](N4CCN(Cc5ccccc5)CC4)C3)c3ccccc3)c3cc(Cl)ccc32)cc1 (stereo partly drawn) [Example 142, 3-{2-[(R)-3-(4-Benzylpiperazin-1-yl)-pyrrolidin-1-yl]-2-oxo-1-phenylethyl}-5-chloro-1-(4-methoxybenzenesulfonyl)-1,3-dihydrobenzimidazol-2-on]",100 to 500
5,"COc1ccc(S(=O)(=O)n2c(=O)n(C(C(=O)N3CC[C@H](N4CCN(Cc5ccccc5)CC4)C3)c3ccccc3)c3cc(C#N)ccc32)cc1 (stereo partly drawn) [Example 143, 3-{2-[(S)-3-(4-Benzylpiperazin-1-yl)-pyrrolidin-1-yl]-2-oxo-1-phenylethyl}-1-(4-methoxybenzenesulfonyl)-2-oxo-2,3-dihydro-1H-benzimidazole-5-carbonitrile]",< 100
6,"COc1ccc(S(=O)(=O)n2c(=O)n(C(C(=O)N3CC[C@@H](N4CCN(Cc5ccccc5)CC4)C3)c3ccccc3)c3cc(C#N)ccc32)cc1 (stereo partly drawn) [Example 144, 3-{2-[(R)-3-(4-Benzylpiperazin-1-yl)-pyrrolidin-1-yl]-2-oxo-1-phenylethyl}-1-(4-methoxybenzenesulfonyl)-2-oxo-2,3-dihydro-1H-benzimidazole-5-carbonitrile]",500 to 10000
7,"COc1ccc(S(=O)(=O)n2c(=O)n(C(C(=O)N3CC[C@@H](N4CCNCC4)C3)c3ccccc3)c3cc(Cl)ccc32)cc1 (stereo partly drawn) [Example 145, 5-Chloro-1-(4-methoxybenzenesulfonyl)-3-[2-oxo-1-phenyl-2-((R)-3-piperazin-1-yl-pyrrolidin-1-yl)-ethyl]-1,3-dihydrobenzimidazol-2-one]",< 100
8,"COc1ccc(S(=O)(=O)n2c(=O)n(C(C(=O)N3CCC(N4CCNCC4)C3)c3ccccc3)c3cc(Cl)ccc32)cc1 (stereo not drawn) [Example 146, 5-Chloro-1-(4-methoxybenzenesulfonyl)-3-[2-oxo-1-phenyl-2-(3-piperazin-1-ylpyrrolidin-1-yl)-ethyl]-1,3-dihydrobenzimidazol-2-one]",< 100
9,"COc1ccc(S(=O)(=O)n2c(=O)n(C(C(=O)N3CCCC(N4CCNCC4)C3)c3ccccc3)c3cc(Cl)ccc32)cc1 (stereo not drawn) [Example 147, 5-Chloro-1-(4-methoxybenzenesulfonyl)-3-[2-oxo-1-phenyl-2-(3-piperazin-1-ylpiperidin-1-yl)ethyl]-1,3-dihydrobenzimidazol-2-one]",< 100
10,"COc1ccc(S(=O)(=O)n2c(=O)n(C(C(=O)N3CC(N4CCNCC4)C3)c3ccccc3)c3cc(Cl)ccc32)cc1 (stereo not drawn) [Example 148, 5-Chloro-1-(4-methoxybenzenesulfonyl)-3-[2-oxo-1-phenyl-2-(3-piperazin-1-ylazetidin-1-yl)ethyl]-1,3-dihydrobenzimidazol-2-one]",100 to 500
11,"COc1ccc(S(=O)(=O)n2c(=O)n(C(C(=O)N3CC[C@H](N4CCNCC4)C3)c3ccccc3)c3cc(Cl)ccc32)cc1 (stereo partly drawn) [Example 149, 5-Chloro-1-(4-methoxybenzenesulfonyl)-3-[2-oxo-1-phenyl-2-((S)-3-piperazin-1-ylpyrrolidin-1-yl)ethyl]-1,3-dihydrobenzimidazol-2-one]",< 100
12,"COc1ccc(S(=O)(=O)n2c(=O)n(C(C(=O)N3CC[C@H](N4CCNCC4)C3)c3ccccc3)c3cc(C#N)ccc32)cc1 (stereo partly drawn) [Example 150, 1-(4-Methoxybenzenesulfonyl)-2-oxo-3-[2-oxo-1-phenyl-2-((S)-3-piperazin-1-ylpyrrolidin-1-yl)ethyl]-2,3-dihydro-1H-benzimidazole-5-carbonitrile]",< 100
13,"COc1ccc(S(=O)(=O)n2c(=O)n(C(C(=O)N3CC[C@@H](N4CCNCC4)C3)c3ccccc3)c3cc(C#N)ccc32)cc1 (stereo partly drawn) [Example 151, 1-(4-Methoxybenzenesulfonyl)-2-oxo-3-[2-oxo-1-phenyl-2-((R)-3-piperazin-1-ylpyrrolidin-1-yl)ethyl]-2,3-dihydro-1H-benzimidazole-5-carbonitrile]",< 100
14,"CCCN1CCN(C2CN(C(=O)C(c3ccccc3)n3c(=O)n(S(=O)(=O)c4ccc(OC)cc4)c4ccc(Cl)cc43)C2)CC1 (stereo not drawn) [Example 154, 5-Chloro-1-(4-methoxybenzenesulfonyl)-3-{2-oxo-1-phenyl-2-[3-(4-propylpiperazin-1-yl)azetidin-1-yl]ethyl}-1,3-dihydrobenzimidazol-2-one]",100 to 500
15,"CCCN1CCN(C2CCCN(C(=O)C(c3ccccc3)n3c(=O)n(S(=O)(=O)c4ccc(OC)cc4)c4ccc(Cl)cc43)C2)CC1 (stereo not drawn) [Example 155, 5-Chloro-1-(4-methoxybenzenesulfonyl)-3-{2-oxo-1-phenyl-2-[3-(4-propylpiperazin-1-yl)piperidin-1-yl]ethyl}-1,3-dihydrobenzimidazol-2-one]",< 100
16,"CCCN1CCN([C@H]2CCN(C(=O)C(c3ccccc3)n3c(=O)n(S(=O)(=O)c4ccc(OC)cc4)c4ccc(C#N)cc43)C2)CC1 (stereo partly drawn) [Example 161, 1-(4-Methoxybenzenesulfonyl)-2-oxo-3-{2-oxo-1-phenyl-2-[(S)-3-(4-propylpiperazin-1-yl)pyrrolidin-1-yl]ethyl}-2,3-dihydro-1H-benzimidazole-5-carbonitrile]",< 100

# More lines, now with the values ahead:
row,Ki [nM],SMILES
1,< 100,"CCN1CCN([C@H]2CCN(C(=O)C(c3ccccc3)n3c(=O)n(S(=O)(=O)c4ccc(OC)cc4)c4ccc(Cl)cc43)C2)CC1 (stereo partly drawn) [Example 152, 5-Chloro-3-{2-[(S)-3-(4-ethylpiperazin-1-yl)pyrrolidin-1-yl]-2-oxo-1-phenylethyl}-1-(4-methoxybenzenesulfonyl)-1,3-dihydrobenzimidazol-2-one]"
2,< 100,"COc1ccc(S(=O)(=O)n2c(=O)n(C(C(=O)N3CC[C@H](N4CCN(C)CC4)C3)c3ccccc3)c3cc(Cl)ccc32)cc1 (stereo partly drawn) [Example 153, 5-Chloro-1-(4-methoxybenzenesulfonyl)-3-{2-[(S)-3-(4-methylpiperazin-1-yl)pyrrolidin-1-yl]-2-oxo-1-phenylethyl}-1,3-dihydrobenzimidazol-2-one]"
3,< 100,"COc1ccc(S(=O)(=O)n2c(=O)n(C(C(=O)N3CCCC(N4CCN(C)CC4)C3)c3ccccc3)c3cc(Cl)ccc32)cc1 (stereo not drawn) [Example 156, 5-Chloro-1-(4-methoxybenzenesulfonyl)-3-{2-[3-(4-methylpiperazin-1-yl)piperidin-1-yl]-2-oxo-1-phenylethyl}-1,3-dihydrobenzimidazol-2-one]"
4,< 100,"CCCN1CCN([C@@H]2CCN(C(=O)C(c3ccccc3)n3c(=O)n(S(=O)(=O)c4ccc(OC)cc4)c4ccc(Cl)cc43)C2)CC1 (stereo partly drawn) [Example 157, 5-Chloro-1-(4-methoxybenzenesulfonyl)-3-{2-oxo-1-phenyl-2-[(R)-3-(4-propylpiperazin-1-yl)pyrrolidin-1-yl]ethyl}-1,3-dihydrobenzimidazol-2-one]"
5,< 100,"CCCN1CCN([C@H]2CCN(C(=O)C(c3ccccc3)n3c(=O)n(S(=O)(=O)c4ccc(OC)cc4)c4ccc(Cl)cc43)C2)CC1 (stereo partly drawn) [Example 158, 5-Chloro-1-(4-methoxybenzenesulfonyl)-3-{2-oxo-1-phenyl-2-[(S)-3-(4-propylpiperazin-1-yl)pyrrolidin-1-yl]ethyl}-1,3-dihydrobenzimidazol-2-one]"
6,< 100,"COc1ccc(S(=O)(=O)n2c(=O)n(C(C(=O)N3CC[C@@H](N4CCN(C)CC4)C3)c3ccccc3)c3cc(Cl)ccc32)cc1 (stereo partly drawn) [Example 159, 5-Chloro-1-(4-methoxybenzenesulfonyl)-3-{2-[(R)-3-(4-methylpiperazin-1-yl)pyrrolidin-1-yl]-2-oxo-1-phenylethyl}-1,3-dihydrobenzimidazol-2-one]"
7,< 100,"COc1ccc(S(=O)(=O)n2c(=O)n(C(C(=O)N3CC[C@H](N4CCN(C)CC4)C3)c3ccccc3)c3cc(C#N)ccc32)cc1 (stereo partly drawn) [Example 160, 1-(4-Methoxybenzenesulfonyl)-3-{2-[(S)-3-(4-methylpiperazin-1-yl)-pyrrolidin-1-yl]-2-oxo-1-phenylethyl}-2-oxo-2,3-dihydro-1H-benzimidazole-5-carbonitrile]"
8,100 to 500,"COc1ccc(S(=O)(=O)n2c(=O)n(C(C(=O)N3CC[C@@H](N4CCN(C)CC4)C3)c3ccccc3)c3cc(C#N)ccc32)cc1 (stereo partly drawn) [Example 162, 1-(4-Methoxybenzenesulfonyl)-3-{2-[(R)-3-(4-methylpiperazin-1-yl)-pyrrolidin-1-yl]-2-oxo-1-phenylethyl}-2-oxo-2,3-dihydro-1H-benzimidazole-5-carbonitrile]"
